In PubChem BioAssay (NCI):
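Where inhibition never reached the appropriate level, the endpoint shown equals the highest concentration tested. Otherwise, values were interpolated linearly from a five-concentration, 48-hour dose response in 96-well plates. Definition used: TGI = concentration required for complete inhibition of growth.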

Key:
Assay in all cases: inhibition of tumour cell growth, NCI panel, 48 h
CAKI-1 renal = tested on: CAKI-1 renal
COLO 205 colon = tested on: COLO 205 colon
EKVX NSCLC = tested on: EKVX NSCLC
HCC-2998 colon = tested on: HCC-2998 colon
HOP-62 NSCLC = tested on: HOP-62 NSCLC
LOX IMVI melanoma = tested on: LOX IMVI melanoma
MDA-N = tested on: MDA-N
NCI-H522 lung = tested on: NCI-H522 lung
OVCAR-5 ovarian = tested on: OVCAR-5 ovarian
SK-MEL-28 melanoma = tested on: SK-MEL-28 melanoma

| Structure (SMILES) | TGI (CAKI-1 renal) [µM] | TGI (COLO 205 colon) [µM] | TGI (EKVX NSCLC) [µM] | TGI (HCC-2998 colon) [µM] | TGI (HOP-62 NSCLC) [µM] | TGI (LOX IMVI melanoma) [µM] | TGI (MDA-N) [µM] | TGI (NCI-H522 lung) [µM] | TGI (OVCAR-5 ovarian) [µM] | TGI (SK-MEL-28 melanoma) [µM] |
| --- | --- | --- | --- | --- | --- | --- | --- | --- | --- | --- |
| CN(C)CC1CCC(CN(C)C)C1=O (stereo not given) | 1.95 | 1.41 | 11 | 32.9 | > 68 | 14.4 | 3.85 | 0.359 | 20.3 | 36.5 |
| C[n+]1c(-c2ccc(/C=C/C=N\NC(=O)c3ccc(C(=O)N/N=C\C=C\c4ccc(-c5cn6ccccc6[n+]5C)cc4)cc3)cc2)cn2ccccc21 | > 60.4 | > 100 | > 100 | > 100 | > 100 | > 100 | > 100 | > 100 | > 100 | > 100 |
| COc1ccc(C2c3cc4c(cc3OC(N3CCOCC3)C2C)OCO4)c(OC)c1OC (stereo not given) | 9.74 | 33.6 | > 100 | 25 | > 100 | 33.9 | 8.42 | 29.7 | 74.3 | 82 |
| COC(=O)c1cc(C#N)[nH]c1-c1cc(Br)cs1 | 62.7 | 35.6 | 47.6 | > 57.5 | 29.9 | 25.5 | 29.4 | 13.3 | 55.7 | 36.5 |
| Cc1ccc(/C=C2\Cc3c(C)cc(C)cc3C2=O)c(C(=O)O)c1 | > 100 | 98.2 | > 100 | 98.6 | > 100 | 48.9 | > 100 | > 100 | > 100 | > 100 |
| C\C(=N/N=C1/C(=C\N(C)C)C(=O)NC(=O)N1C)c1ccc(Cl)cc1 | > 100 | > 100 | > 100 | > 100 | > 100 | > 100 | > 100 | > 100 | > 100 | > 100 |
| CNC(=O)CCCNC(=O)CCCC(=O)N(C)C | > 100 | > 100 | > 100 | > 100 | > 100 | > 100 | > 100 | > 100 | > 100 | > 100 |
| C#CCN(Cc1ccc2nc(OC)c(OC)nc2c1)c1cc(OC)c(OC)c(OC)c1 | > 82.8 | 41.5 | > 86 | > 100 | > 67.9 | > 48.9 | 45.5 | 36.1 | > 85.8 | > 100 |
| COc1ccc(COCC[C@H](C)OC2OC(CO[Si](C)(C)C(C)(C)C)C(OC(=O)CCCN=[N+]=[N-])C(OC(=O)CCCN=[N+]=[N-])C2OC(=O)CCCN=[N+]=[N-])cc1 (stereo not given in full) | > 100 | 83.1 | > 100 | > 100 | > 100 | > 100 | > 100 | > 100 | > 100 | > 100 |
